Test: Intrinsic clearance in human liver microsomes
Format: ADME, Microsome
Conditions: read-out: CLH

Structure (SMILES): OC(CC1c2c(F)cccc2-c2cncn21)C1CCCCC1 (stereo unspecified)
- predicted hepatic clearance: 18.9 mL/min/kg
